Measurements taken from patent publication US6440991B1, “Ethers of 7-desmethlrapamycin” (Wyeth, priority 2000, dated 2002).
Converted amounts (≈) assume the structure as drawn.

Assays:
Format in all cases: cell-based
Aspergillus niger = assay: Antifungal activity, microtiter broth dilution MIC; details: RPMI 1640, 35° C., 24-48 hours
Protocol: (§1) The antifungal activity for the ethers of 7-desmethylrapamycin of this invention was confirmed in a standard pharmacological test procedure which measured the ability of the compound being evaluated to inhibit fungal growth. 42-O-(2-Hydroxy)ethyl 7-desmethylrapamycin […] (Compound I) was evaluated as a representative compound of this invention. The procedure used and results obtained are briefly described below. A 96 U-bottom microtiter plate was filled (50 μl/well) with RPMI 1640. The compounds to be evaluated were placed in appropriate wells, and serial diluted in successive wells to provide 11 dilutions. The concentrations ranged from 64 through 0.06 μug/ml. An adjusted inoculum of fungi (50 μl) was added to each well and the plates were incubated at 35° C. for 24-48 hours. […] Nystatin and amphotericin B were used for the purpose of comparison.

Candida albicans = assay: Antifungal activity, microtiter broth dilution MIC; details: RPMI 1640, 35° C., 24-48 hours
Protocol: as §1

Candida krussii = assay: Antifungal activity, microtiter broth dilution MIC; details: Candida krussii strain 94-2; RPMI 1640, 35° C., 24-48 hours
Protocol: as §1

Candida lusitaniae = assay: Antifungal activity, microtiter broth dilution MIC; details: Candida lusitaniae strain 94-3; RPMI 1640, 35° C., 24-48 hours
Protocol: as §1

Candida pseudotropicalis = assay: Antifungal activity, microtiter broth dilution MIC; details: Candida pseudotropicalis strain ATCC 28838; RPMI 1640, 35° C., 24-48 hours
Protocol: as §1

Candida tropicalis = assay: Antifungal activity, microtiter broth dilution MIC; details: RPMI 1640, 35° C., 24-48 hours
Protocol: as §1

Candida rugosa = assay: Antifungal activity, microtiter broth dilution MIC; details: Candida rugosa strain 94-10; RPMI 1640, 35° C., 24-48 hours
Protocol: as §1

Candida parapsilosis = assay: Antifungal activity, microtiter broth dilution MIC; details: RPMI 1640, 35° C., 24-48 hours
Protocol: as §1

Aspergillus fumigatus = assay: Antifungal activity, microtiter broth dilution MIC; details: Aspergillus fumigatus strain ATCC 26933; RPMI 1640, 35° C., 24-48 hours
Protocol: as §1

[1] = system: U87MG human glioblastoma cells; assay: Inhibition of U87MG human glioblastoma cell growth (3H-thymidine incorporation); details: 48 hours incubation with compound
Protocol: The antineoplastic activity of the compounds of this invention were confirmed in a standard pharmacological test procedure which measures the inhibition of U87MG human glioblastoma cell growth (as a function of ^3H-thymidine incorporation), using 42-O-(2-hydroxy)ethyl 7-desmethylrapamycin (Compound I) as a representative compound of this invention. The following briefly describes the procedure used and results obtained. U87MG human glioblastoma cells (ATCC # HTB-14; available from the American Type Culture Collection; 10801 University Boulevard; Manassas, Va. 20110;), were grown in the following media.
Growth Medium: BRL Minimum Essential Medium with Earle Salts (500 mL)
+5 mL BRL MEM Non-Essential Amino Acids (10 mM)
+5 mL BRL Penicillin-Streptomycin (1 0000u/mL,1 0000 μg/mL)
+5 mL BRL Na Pyruvate Solution (100 mM)
+5 mL BRL L-Glutamine 200 mM
+50 mL BRL Fetal Bovine Serum (Qualified)
1. Cells were trypsinized and plated at a concentration of 10^4 cells/well in a final volume of 200 μL growth medium in 96-well flat bottom plates and allowed to adhere for 24 hours at 37° C.
2. The media was removed by aspiration with care to not disturb the cell monolayer. 200 μL of fresh growth media was added per well, allowing enough wells for samples to be run in triplicate. […]
4. […] Mats were counted in a Wallac Betaplate counter.

[2] = Candida albicans strain ATCC 90028
[3] = Candida tropicalis strain 94-13
[4] = Candida tropicalis strain 94-14
[5] = Candida parapsilosis strain 94-8
[6] = Candida parapsilosis strain 94-9
[7] = Candida parapsilosis strain ATCC 90018

SMILES	ANTIFUNGAL ACTIVITY (MIC) (Aspergillus niger; Aspergillus niger strain S399)	ANTIFUNGAL ACTIVITY (MIC) (Aspergillus niger; Aspergillus niger strain S430)	ANTIFUNGAL ACTIVITY (MIC) (Candida albicans; Candida albicans strain 1063)	ANTIFUNGAL ACTIVITY (MIC) (Candida albicans; Candida albicans strain 1117)	ANTIFUNGAL ACTIVITY (MIC) (Candida albicans; [2])	ANTIFUNGAL ACTIVITY (MIC) (Candida krussii)	ANTIFUNGAL ACTIVITY (MIC) (Candida lusitaniae)	ANTIFUNGAL ACTIVITY (MIC) (Candida pseudotropicalis)	ANTIFUNGAL ACTIVITY (MIC) (Candida tropicalis; [3])	ANTIFUNGAL ACTIVITY (MIC) (Candida tropicalis; [4])	ANTIFUNGAL ACTIVITY (MIC) (Candida rugosa)	ANTIFUNGAL ACTIVITY (MIC) (Candida parapsilosis; [5])	ANTIFUNGAL ACTIVITY (MIC) (Candida parapsilosis; [6])	ANTIFUNGAL ACTIVITY (MIC) (Candida parapsilosis; [7])	ANTIFUNGAL ACTIVITY (MIC) (Aspergillus fumigatus)	IC50 [1]
C[C@@H]1[C@H](O)[C@@H](C)/C=C/C=C/C=C/C=C/C=C/C=C/C=C/[C@H](O[C@@H]2O[C@H](C)[C@@H](O)[C@H](N)[C@@H]2O)C[C@@H]2O[C@](O)(C[C@@H](O)C[C@@H](O)[C@H](O)CC[C@@H](O)C[C@@H](O)CC(=O)O[C@H]1C)C[C@H](O)[C@H]2C(=O)O [Amphotericin B, amphotericin B]	0.50 µg/mL	0.25 µg/mL	≦0.06 μg/mL	0.12 µg/mL	0.12 µg/mL	0.12 µg/mL	≦0.06 μg/mL	≦0.06 μg/mL	≦0.06 μg/mL	≦0.06 μg/mL	0.25 µg/mL	≦0.06 μg/mL	0.12 µg/mL	≦0.06 μg/mL	0.25 µg/mL	
CO[C@@H]1C[C@H](C[C@@H](C)[C@@H]2CC(=O)[C@H](C)/C=C(\C)[C@@H](O)[C@@H](OC)C(=O)[C@H](C)C[C@H](C)/C=C/C=C/C=C(\C)[C@@H](O)C[C@@H]3CC[C@@H](C)[C@@](O)(O3)C(=O)C(=O)N3CCCC[C@H]3C(=O)O2)CC[C@H]1OCCO [Compound I, 42-O-(2-Hydroxy)ethyl 7-desmethyirapamycin]	64 µg/mL	64 µg/mL	1 µg/mL	2 µg/mL	2 µg/mL	0.5 µg/mL	1 µg/mL	2 µg/mL	0.5 µg/mL	0.5 µg/mL	1 µg/mL	2 µg/mL	2 µg/mL	2 µg/mL	64 µg/mL	0.0035 µg/mL (≈ 3.71 nM)
C[C@@H]1[C@H](O)[C@@H](C)/C=C/C=C/CC/C=C/C=C/C=C/C=C/C(O[C@H]2O[C@H](C)[C@@H](O)[C@H](N)[C@@H]2O)CC2O[C@](O)(CC(O)C(O)CCC(O)CC(O)CC(O)CC(=O)O[C@H]1C)CC(O)C2C(=O)O (stereo partly shown) [Nystatin]	2 µg/mL	1 µg/mL	1 µg/mL	1 µg/mL	1 µg/mL	1 µg/mL	1 µg/mL	1 µg/mL	1 µg/mL	1 µg/mL	1 µg/mL	2 µg/mL	1 µg/mL	2 µg/mL	2 µg/mL	
